Data: patent US20240050402A1, “ANETHOLE TRITHIONE ADMINISTRATION REGIMEN FOR THE PREVENTION OR TREATMENT OF ISCHEMIA-REPERFUSION INJURIES” (priority 2020, published 2024)
Like-named read-outs stand apart in the source and are kept apart here.

Experiments:
[1] = test system: myocardial ischemia-reperfusion, left coronary artery occlusion; assay: In vivo ischemia-reperfusion model in rat (30 min left coronary artery occlusion, 3 h reperfusion); settings: for reduction of the size of the myocardial infarction / reduction of the size of the no-reflow zone: versus control; for Area of necrosis/Area at risk (%) / Area of no-reflow/Area at risk (%): mean±SEM
Procedure: 64 female Sprague Dawley rats (— 6 months old) were anesthetized with intraperitoneal ketamine (90 mg/kg) and xylazine (10 mg/kg). Only female rats were used in this study as it was previously reported that gender had no effect on the extent of myocardial injury in the setting of experimental myocardial infarction in rats (Li & Kloner, 1995. J Thromb Thrombolysis. 2(3):221-225); and that lethal reperfusion-induced arrhythmias led to a higher mortality in male rats versus female rats (Dow et al., 2015. Springerplus. 4:96).
The animals were intubated and mechanically ventilated with room air at respiratory rate of 60 cycles/minute and tidal volume of 1 mL per 100 g body weight (Harvard Apparatus Rodent Ventilator, Model 683, South Natick, Mass). A water circulating heating pad was used to keep the rat body temperature at around 37° C. Their neck surgical area was shaved and cleaned, and catheters were inserted into the jugular vein (for drug delivery) and carotid artery (for arterial waveform monitoring) via cut downs. Under clean conditions, the chest cavity was opened through an incision in the left 4th intercostal space to expose the heart. The pericardium was gently removed to expose the anterior surface of the left ventricle. A 4-0 silk suture was placed under the proximal portion of the left coronary artery as it runs through the interventricular groove just under the tip of the left atrial appendage. The end of the suture was threaded through a small plastic tube to make a snare for coronary artery occlusion. At the time of occlusion, the artery was pulled through the plastic tube and the tube was clamped. Coronary artery reperfusion occurred by releasing the clamp and watching the surface of the heart for reactive hyperemia. The left coronary artery was occluded for 30 minutes followed by 3 hours of reperfusion.
Rats were randomized into one of the 3 groups: • preventive group (n=22): AOL infusion starting 5 minutes before coronary artery occlusion; • curative group (n=20): AOL infusion starting 5 minutes prior to reperfusion; • control group (n=22): vehicle infusion starting 5 minutes before coronary artery occlusion.
The investigators were blinded to the animal randomization. Infusions in all groups were continuous throughout the end of the study (h+3 after reperfusion). In treated rats, the dose of AOL was 0.2 mg/kg/hour delivered in saline at a rate of infusion of 2 mL/kg/hour.
By the end of the 3-hour reperfusion, a solution of thioflavin S was injected into the jugular vein during the last one minute of reperfusion to assess the distribution of the no-reflow phenomenon (also known as “zone of microvascular obstruction”). Thioflavin S is a dye that appears fluorescent in areas receiving perfusion, when heart slices are visualized under UV light; while the no-reflow area, that lacks perfusion, appears dark (non-fluorescent). At the end of the period of reperfusion after thioflavin S injection, the proximal coronary artery was briefly re-occluded and blue dye (Super imperse blue) was injected into the jugular vein.
At the end of this step, the animal was euthanized under deep anesthesia with ketamine/xylazine by intravascular injection of KCl (149 mg/mL) at 0.5 mL/250 g body weight in order to stop the heart in a relative diastolic or relaxed state. The heart was excised and was gently washed in clear saline, and then transected into 4 transverse slices from apex to base.
The heart slices were photographed under white light in order to delineate the ischemic risk zone (pink) versus the non-ischemic regions (blue) that received the blue dye. The heart slices were then photographed under UV light in order to delineate the areas of perfusion by thioflavin S (fluorescent areas) versus the no-reflow zones (non-fluorescent).
Finally, hearts were incubated in 1% of triphenyl tetrazolium chloride (TTC), a chemical that stains viable cells brick red, while dead or necrotic cells appear white. […]

[2] = test system: myocardial ischemic-reperfusion, LAD coronary artery occlusion; assay: In vivo ischemia-reperfusion model in sheep (balloon catheter LAD occlusion); settings: ST-segment elevation, troponin Ic, CPK, infarct size, ejection fraction; level when occluding balloon deflated
Procedure: (§1) Here, we investigated the effect of AOL in an in vivo ischemic-reperfusion model in sheep, by administering AOL prior to reperfusion to assess the cardioprotective potential of AOL. Several parameters were evaluated: • the infarct size, determined at the end of the experiment (day 3), and assessed by two independent pathologists; • the plasmatic exposure, evaluated by dosing plasma samples collected at regular intervals after administration of AOL by mass spectrometry; • ECG parameters; and • heart contractility, assessed through the measurement of the ejection fraction.
The efficacy of AOL was evaluated by comparing these parameters in vehicle- and AOL-treated groups using the sheep model.
Sheep underwent a myocardial ischemic-reperfusion, while either receiving AOL or the vehicle as a control. The animals underwent a three-day follow-up period and were euthanized on day 3.
Myocardial ischemic followed by reperfusion was induced by using the balloon catheter procedure, which consists in occluding the distal left anterior descending (LAD) coronary artery by inflating/deflating a balloon. This particular procedure allowed to have infarction sizes highly reproducible and to occlude only temporally the coronary artery.
AOL or vehicle were administered as a bolus intravenous (IV) injection 10 minutes prior to reperfusion. […]

[3] = Clinical pharmacokinetics study in healthy volunteers, IV bolus + 1-step infusion; format: in vivo, human; settings: for Cmax / concentration at 12 hours: both sexes, human, plasma; for Cmax: intravenous, read-out: AOL plasma concentration Cmax; for concentration at 12 hours: iv, read-out: AOL plasma concentration End of 12-hour infusion (IV)
Procedure: The concentration of AOL in the subject's plasma can be measured by means and methods well known to the skilled artisan, such as liquid chromatography-mass spectrometry (LC/MS) or any other suitable means or method. For example, a blood sample from the subject can be centrifuged—preferably within 30 minutes after blood sampling—at about 1 500 g for 10 minutes at 2-8° C. to obtain plasma—the skilled artisan is familiar with method of obtaining plasma from a blood sample, and can readily adapt the centrifugal force, time, temperature and any other parameter according to their routine practice. Immediately after centrifugation, the plasma sample can be analyzed to assess the concentration of AOL by liquid chromatography-mass spectrometry (LC/MS).
A single site, randomized, placebo-controlled, open-label and single blind, ascending dose, cross-over study primarily aiming at evaluating the pharmacokinetics, safety and tolerability of AOL administered intravenously in healthy volunteers versus a marketed formulation of AOL (Sulfarlem 525 ®) administered orally was carried out at QPS Netherlands B.V. (Groningen, The Netherlands). Twelve healthy male and female subjects aged between 18 and 65 years old were included in this study.
During this clinical pharmacokinetics study, several dosage regimens have been tested to assess the safety of AOL and to better characterized its pharmacokinetics profile, when administered by IV route (Table 2).

[4] = Two-step infusion after bolus, AOL plasma concentration in human; format: in vivo; settings: 2-step infusion 6 then 3 μg/kg/h (3 h + 9 h), lower and higher bolus doses
Procedure: In that respect, the management of the immediate post-initiation period has been evaluated using a 2-step infusion approach, i.e., starting with a higher dose (6 jig/kg/h) in the first 3 hours of infusion, and then stepping down to a lower dose (3 jig/kg/h) for the remaining time (in this example, 9 hours, for a total infusion period of 12 hours).
The same 2-step infusion regimen was tested with 2 different bolus doses.

[5] = Plasma exposure of AOL metabolite in sheep after bolus/infusion; format: in vivo; settings: limit of quantification
Procedure: as §1
AOL or vehicle were administered as a bolus intravenous (IV) injection 10 minutes prior to reperfusion. This bolus injection was expected to ensure an effective AOL plasma exposure on reperfusion and was immediately followed by a continuous IV infusion starting at the beginning of the reperfusion, for a total duration of administration (bolus+infusion) of 130 minutes.
This starkly contrasted with the metabolization profile that we had observed in sheep (Example 2), where AOX remained below the limit of quantification (0.5 ng/mL) after bolus/infusion, despite similar or even higher doses (FIGS. 9B & 9C).

[6] = curative (shortly before reperfusion)
[7] = curative group: AOL 0.2 mg/kg/hour infusion starting 5 minutes prior to reperfusion
[8] = preventive (prior to coronary artery occlusion)
[9] = preventive group: AOL 0.2 mg/kg/hour infusion starting 5 minutes before coronary artery occlusion
[10] = bolus 0.3 μg/kg, infusion 0.4 μg/kg/hr for 12 hours
[11] = bolus 0.9 μg/kg, infusion 1.7 μg/kg/hr for 12 hours
[12] = bolus 1.8 μg/kg, infusion 3 μg/kg/hr for 12 hours
[13] = bolus 4 μg/kg, infusion 6 μg/kg/hr for 12 hours

COc1ccc(-c2cc(=S)ss2)cc1 [AOL, 5-(4-methoxyphenyl)dithiole-3-thione]
effect on hemodynamics (heart rate, arterial blood pressure) ([1]; baseline, end of occlusion, end of 3 hours reperfusion): without effect on hemodynamics | reduction of the size of the myocardial infarction [1, 6]: 11% | reduction of the size of the no-reflow zone [1, 6]: 23% | Area of necrosis/Area at risk (%) [1, 7]: 50.8 ± 3.9^ % | Area of no-reflow/Area at risk (%) [1, 7]: 30.1 ± 2.3 % | reduction of the size of the myocardial infarction [1, 8]: 22% | reduction of the size of the no-reflow zone [1, 8]: 26% | Area of necrosis/Area at risk (%) [1, 9]: 44.5 ± 2.9^& % | Area of no-reflow/Area at risk (%) [1, 9]: 28.8 ± 2.4 % | AOL plasma level at reperfusion at which positive impact compared to vehicle was observed [2]: > 1 ng per mL of plasma | slope of linear regression, plasma concentration at Cmax (Y) versus bolus dose (X) ([3]; Y=slope×X, FIG. 8A): 1.046 | slope of linear regression, plasma concentration at end of infusion (Y) versus infusion dose (X) ([3]; Y=slope×X, FIG. 8B): 0.5723 | time at which steady state was reached ([3]; all dosage regimens tested): around 3 hours | AOL plasma concentration Valley [3, 10]: ~0.08 ng/mL | AOL plasma concentration Valley [3, 11]: ~0.37 ng/mL | AOL plasma concentration Valley [3, 12]: ~0.72 ng/mL | AOL plasma concentration Valley [3, 13]: ~2.67 ng/mL | Cmax [3, 10]: 0.29 ng/mL | Cmax [3, 11]: 1.04 ng/mL | Cmax [3, 12]: 1.94 ng/mL | Cmax [3, 13]: 4.14 ng/mL | concentration at 12 hours [3, 10]: ~0.1 ng/mL | concentration at 12 hours [3, 11]: ~0.8 ng/mL | concentration at 12 hours [3, 12]: ~1.7 ng/mL | concentration at 12 hours [3, 13]: ~3.5 ng/mL | metabolization of AOL into AOX ([3]; human subjects, FIG. 9A): rapidly metabolized into AOX | trough of AOL plasma concentration after the bolus [4]: abolished the trough

Oc1ccc(-c2cc(=S)ss2)cc1 [AOX, desmethylanethole trithione]
appearance of AOX in plasma after start of AOL administration ([3]; human subjects, FIG. 9A): quickly appeared in the plasma | AOX plasma concentration [5]: < 0.5 ng/mL
